Results as given in patent publication US9365553B2, “Heterocyclic compound and H1 receptor antagonist” (Aska Pharmaceutical Co., Ltd., priority 2010, dated 2016).

Legend:
rat H1 receptor = biological target: T1, rat H1 receptor (Rattus norvegicus, UniProt P31390); assay: Rat H1 receptor affinity test (Test Example 1); assay type: binding; conditions: rat cerebrum membrane preparation, [3H]-pyrilamine 2 nmol/L
T1 construct: An H1 receptor membrane preparation was prepared from rat cerebrum; from tissue; host or cells: rat cerebrum
Procedure: An H1 receptor membrane preparation was prepared from rat cerebrum. […] To the resulting each sample, 50 μL of 8 nmol/L [^3H]-pyrilamine (manufactured by PerkinElmer) (final concentration: 2 nmol/L) was added and mixed. After the mixture was incubated at a room temperature for 30 minutes, the reaction solution was collected on a glass filter by a cell harvester (manufactured by Molecular Devices), and then the filter was washed with the incubation buffer. The glass filter was cut off and transferred in a vial. To the vial was added 5 mL of a scintillator (manufactured by National Diagnostics), and the mixture was shaken for not less than one hour. Thereafter, the radioactive concentration was measured by a liquid scintillation counter.

[1] = tested on: histamine-induced skin reaction in rat; assay: Histamine-induced skin reaction test in rat (Test Example 3); assay type: in vivo; conditions: oral, histamine 10 μg/0.1 mL/site intradermal, pigment area, read-out: Skin reaction test in rat ID50
Procedure: […] One hour after the administration, a 1% Evans Blue physiological saline solution (Tokyo Chemical Industry Co., Ltd.) was administered into the caudal vein in a dose of 5 mL/kg, and immediately histamine 10 μg/0.1 mL/site (manufactured by Wako Pure Chemical Industries, Ltd.) was intradermally administered into the dorsum. Thirty minutes after the administration, the rat was anesthetized with diethyl ether and then euthanized by cervical dislocation. The skin was ablated, and the major axis and minor axis of a spot of the pigment exuded into the skin were measured to calculate the area of the pigment.

[2] = tested on: histamine-induced skin reaction in mouse; assay: Skin reaction test in mouse (Test Example 4); assay type: in vivo; conditions: oral, histamine 3 μg/50 μL/site intradermal, pigment area, read-out: Skin reaction test in mouse ID50
Procedure: Each mouse was sheared the day before test and fasted overnight. A low, middle or high dose of each test compound suspended in a 0.5% (W/V) CMC-Na aqueous solution was orally administered to the mouse. One hour after the administration, a 1% Evans Blue physiological saline solution (Tokyo Chemical Industry Co., Ltd.) was administered into the caudal vein in a dose of 10 mL/kg, and immediately histamine 3 μg/50 μL/site was intradermally administered into the dorsum. Thirty minutes after the administration, the mouse was anesthetized with diethyl ether and then euthanized by cervical dislocation. The skin was ablated, and the major axis and minor axis of a spot of the pigment exuded into the skin were measured to calculate the area of the pigment.

human H1 receptor = biological target: T2, human H1 receptor (Homo sapiens, UniProt P35367); assay: Human H1 receptor affinity test (Test Example 2); assay type: binding; conditions: CHO cell membrane preparation expressing human H1 receptor, [3H]-pyrilamine 2 nmol/L
T2 construct: purchased; host or cells: CHO cells
Procedure: Chinese hamster ovarian cells (CHO cells) having human H1 receptor forcibly express were purchased and used as an H1 receptor membrane preparation. […] To the resulting each sample, 50 μL of 8 nmol/L [^3H]-pyrilamine (final concentration: 2 nmol/L) was added and mixed. […] The glass filter was cut off and transferred in a vial. To the vial was added 5 mL of a scintillator (manufactured by National Diagnostics), and the mixture was shaken for not less than one hour. Thereafter, the radioactive concentration was measured by a liquid scintillation counter.

[3] = tested on: mouse IgE-dependent ear edema model; assay: Inhibitory effects on mouse IgE-dependent ear edema model (Test Example 8); assay type: in vivo; conditions: oral twice a day, dose a multiple of mouse ID50 (Dose column of Table E); for Inhibitory effects in each allergic reaction phase: Immediate phase: mouse ear swelling 1 hour after antigen; for Inhibitory effects in each allergic reaction phase: Late phase: mouse ear swelling 24 hours after antigen; for Inhibitory effects in each allergic reaction phase: Very late phase: mouse ear swelling 7 days after antigen;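 as to all read-outs here: 5 or 10 times the mouse skin-reaction ID50 per dose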
Procedure: (§1) To each mouse, 0.25 mL of an anti-DNP-IgE antibody (manufactured by SIGMA-ALDRICH) was intravenously administered for passive sensitization. On the day following the administration, an antigen (DNFB solution; manufactured by Wako Pure Chemical Industries, Ltd.) was applied on the right ear to induce dermatitis (ear swelling). One hour, 24 hours and 7 days after the application of the antigen, the thickness of the right ear was measured by a thickness measuring apparatus (dial thickness gauge). […] The thickness of the right ear before the sensitization was measured beforehand; the inhibition rates of the swelling in immediate phase, late phase, and very late phase were calculated.

[4] = tested on: mouse IgE-dependent ear edema model; assay: Inhibitory effects on mouse IgE-dependent ear edema model (Test Example 5); assay type: in vivo; conditions: oral twice a day, dose one-third of ID50 (Dose column of Table D); for Inhibitory effects in each allergic reaction phase: Immediate phase: mouse ear swelling 1 hour after antigen; for Inhibitory effects in each allergic reaction phase: Late phase: mouse ear swelling 24 hours after antigen; for Inhibitory effects in each allergic reaction phase: Very late phase: mouse ear swelling 7 days after antigen;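 as to all read-outs here: doses given 1 h before and 6 h after antigen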
Procedure: as §1

T2 sequence (P35367 whole entry): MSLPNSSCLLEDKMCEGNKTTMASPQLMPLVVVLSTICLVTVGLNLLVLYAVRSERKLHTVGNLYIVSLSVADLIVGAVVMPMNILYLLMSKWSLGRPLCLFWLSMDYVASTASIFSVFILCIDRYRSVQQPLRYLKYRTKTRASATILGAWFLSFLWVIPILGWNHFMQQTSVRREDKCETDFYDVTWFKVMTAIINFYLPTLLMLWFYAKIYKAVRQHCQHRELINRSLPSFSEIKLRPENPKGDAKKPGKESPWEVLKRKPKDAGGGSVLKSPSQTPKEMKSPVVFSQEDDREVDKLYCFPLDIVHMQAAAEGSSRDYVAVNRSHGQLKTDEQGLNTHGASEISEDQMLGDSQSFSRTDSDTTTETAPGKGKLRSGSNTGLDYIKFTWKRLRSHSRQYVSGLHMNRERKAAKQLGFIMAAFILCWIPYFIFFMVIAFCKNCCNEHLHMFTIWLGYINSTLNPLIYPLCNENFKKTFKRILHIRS
T1 sequence (P31390 whole entry): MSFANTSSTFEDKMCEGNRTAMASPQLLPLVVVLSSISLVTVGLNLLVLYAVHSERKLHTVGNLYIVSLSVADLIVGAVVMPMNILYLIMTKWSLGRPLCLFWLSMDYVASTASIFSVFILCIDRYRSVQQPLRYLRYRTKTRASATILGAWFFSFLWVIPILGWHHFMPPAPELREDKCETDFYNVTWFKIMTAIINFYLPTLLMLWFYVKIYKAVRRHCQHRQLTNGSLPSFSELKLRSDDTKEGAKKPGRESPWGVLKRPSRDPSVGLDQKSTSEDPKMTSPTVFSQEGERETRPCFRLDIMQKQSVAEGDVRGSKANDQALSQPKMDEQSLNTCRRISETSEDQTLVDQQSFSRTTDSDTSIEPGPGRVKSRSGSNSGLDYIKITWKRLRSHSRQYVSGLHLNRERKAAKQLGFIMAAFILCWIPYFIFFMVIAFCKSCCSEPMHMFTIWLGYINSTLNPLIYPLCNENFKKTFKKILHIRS

Structure (SMILES) | IC50 (rat H1 receptor) | IC50 (human H1 receptor) | ED50 [1] | ED50 [2] | Inhibitory effects in each allergic reaction phase: Immediate phase [3] | Inhibitory effects in each allergic reaction phase: Late phase [3] | Inhibitory effects in each allergic reaction phase: Very late phase [3] | Inhibitory effects in each allergic reaction phase: Immediate phase [4] | Inhibitory effects in each allergic reaction phase: Late phase [4] | Inhibitory effects in each allergic reaction phase: Very late phase [4]
O=C(O)CCCN1CCC(O[C@@H](c2ccc(Cl)cc2)c2ccccn2)CC1 [Bepotastine] | 170 nM | 20 nM | 0.5 mg/kg | 0.02 mg/kg |  |  |  |  |  | 
O=C(O)c1cccc(CN2CCC(OC(c3ccccc3)c3ccccc3)CC2)n1 [Example 2, 6-(4-benzhydryloxypiperidin-1-ylmethyl)pyridine-2-carboxylic acid] | 25 nM | 10 nM | 3.4 mg/kg | 0.1 mg/kg | ++ (++ Inhibitory rate 45 to 20%) | ++ (++ Inhibitory rate 45 to 20%) | + (+ Inhibitory rate 19 to 10%) | ++ (++ Inhibitory rate 45 to 25%) | ++ (++ Inhibitory rate 45 to 25%) | + (+ Inhibitory rate 24 to 10%)
O=C(O)c1cc(CN2CCC(OC(c3ccccc3)c3ccccc3)CC2)cs1 [Example 5] | 7 nM | 10 nM | 1.8 mg/kg | 0.11 mg/kg |  |  |  |  |  | 
O=C(O)c1cccc(CN2CCN(C(c3ccc(F)cc3)c3ccc(F)cc3)CC2)n1 [Example 11, 6-{4-[bis(4-fluorophenyl)methyl]piperazin-1-ylmethyl}pyridine-2-carboxylic acid] | 280 nM | 22 nM | 0.3 mg/kg | 0.01 mg/kg | ++ (++ Inhibitory rate 45 to 20%) | ++ (++ Inhibitory rate 45 to 20%) | ++ (++ Inhibitory rate 45 to 20%) | ++ (++ Inhibitory rate 45 to 25%) | ++ (++ Inhibitory rate 45 to 25%) | ++ (++ Inhibitory rate 45 to 25%)
O=C(O)c1cccc(CN2CCC(=C3c4ccc(Cl)cc4CCc4cccnc43)CC2)c1 [Example 67, 3-[4-(8-Chloro-5,6-dihydrobenzo[5,6]cyclohepta[1,2-b]pyridin-11-ylidene)piperidin-1-ylmethyl]benzoic acid] |  |  | 1.2 mg/kg | 0.09 mg/kg |  |  |  |  |  | 
CN(C)CC/C=C1/c2ccccc2COc2ccc(CC(=O)O)cc21 [Olopatadine] |  |  |  |  | ++ (++ Inhibitory rate 45 to 20%) | − (− Inhibitory rate less than 10%) | − (− Inhibitory rate less than 10%) | ++ (++ Inhibitory rate 45 to 25%) | − (− Inhibitory rate less than 10%) | + (+ Inhibitory rate 24 to 10%)

The next lines start with results.

IC50 (rat H1 receptor) | IC50 (human H1 receptor) | Structure (SMILES) | ED50 [1] | ED50 [2] | Inhibitory effects in each allergic reaction phase: Immediate phase [3] | Inhibitory effects in each allergic reaction phase: Late phase [3] | Inhibitory effects in each allergic reaction phase: Very late phase [3] | Inhibitory effects in each allergic reaction phase: Immediate phase [4] | Inhibitory effects in each allergic reaction phase: Late phase [4] | Inhibitory effects in each allergic reaction phase: Very late phase [4]
5.7 nM | 13 nM | O=C(O)c1cccc(CN2CCC(OC(c3ccccc3)c3ccc(Cl)cc3)CC2)n1 (stereo not drawn) [Example 22] | 0.5 mg/kg | 0.01 mg/kg |  |  |  |  |  | 
75 nM | 12 nM | O=C(O)c1cccc(C(F)(F)N2CCC(OC(c3ccccc3)c3ccccc3)CC2)n1 [Example 37, 6-[(4-Benzhydryloxypiperidin-1-yl)difluoromethyl]pyridine-2-carboxylic acid] | 3.2 mg/kg | 0.06 mg/kg |  |  |  |  |  | 
72 nM | 6.8 nM | O=C(O)c1ccnc(CN2CCC(OC(c3ccccc3)c3ccc(F)cc3)CC2)c1 (stereo not drawn) [Example 39] | 1.3 mg/kg | 0.04 mg/kg | ++ (++ Inhibitory rate 45 to 20%) | ++ (++ Inhibitory rate 45 to 20%) | ++ (++ Inhibitory rate 45 to 20%) | ++ (++ Inhibitory rate 45 to 25%) | ++ (++ Inhibitory rate 45 to 25%) | ++ (++ Inhibitory rate 45 to 25%)
53 nM | 25 nM | O=C(O)c1cccc(CN2CCC(OC(c3ccccc3)c3ccc(F)c(F)c3)CC2)n1 (stereo not drawn) [Example 48] | 2.9 mg/kg | 0.05 mg/kg |  |  |  |  |  | 
28 nM | 14 nM | O=C(O)c1cccc(CN2CCC(=C3c4ccccc4C=Cc4cccnc43)CC2)c1 [Example 70] | 1.6 mg/kg | 0.12 mg/kg |  |  |  |  |  | 
16 nM | 14 nM | O=C(O)c1cccc(CN2CCC(=C3c4ccccc4C=Cc4cccnc43)CC2)n1 [Example 71] | 0.6 mg/kg | 0.07 mg/kg |  |  |  |  |  | 
